# From ChEMBL document CHEMBL6114953, “De novo discovery of cyclic peptide inhibitors of IL-11 signaling” (Bioorg Med Chem, 2025)
# Where a SMILES comes first, the peptide text is derived from it. Bridges are numbered along the chain shown (N, C = ends). [ ]: non-standard residue; d: D form. ξ: configuration not given here. Met(O) = CS(=O)CC[C@H](N)C(=O)O; ξH = NC(Cc1c[nH]cn1)C(=O)O; Nle = CCCC[C@H](N)C(=O)O
# Assay: Inhibition of his-tagged recombinant human IL-11 (22 to 199 residues) expressed in HEK293 cells/biotinylated recombinant human IL-11Ralpha (24 to 370 residues) expressed in HEK293 cells incubated for 1 hr by AlphaLISA assay
# Type: cell-based
row,Structure (SMILES),Ki [nM]
1,CSCC[C@@H]1NC(=O)[C@H](Cc2c[nH]cn2)NC(=O)[C@H](CO)NC(=O)[C@@H](NC(=O)[C@H](Cc2c[nH]c3ccccc23)NC(=O)[C@H](Cc2ccc(O)cc2)NC(C)=O)CSSC[C@@H](C(=O)N[C@@H](Cc2c[nH]c3ccccc23)C(N)=O)NC(=O)[C@H](C(C)C)NC(=O)[C@H]([C@@H](C)O)NC(=O)[C@H]([C@@H](C)O)NC(=O)[C@H](Cc2ccc(O)cc2)NC(=O)[C@H](Cc2ccc(O)cc2)NC1=O (Ac-YWCSHMYYTTVCW-NH2; disulfide 3-12),> 28000
2,CSCC[C@@H]1NC(=O)[C@H](Cc2c[nH]cn2)NC(=O)[C@H](CO)NC(=O)[C@@H](NC(C)=O)CSSC[C@@H](C(=O)N[C@@H](Cc2c[nH]c3ccccc23)C(=O)N[C@@H](CCCNC(=N)N)C(N)=O)NC(=O)[C@H](C(C)C)NC(=O)[C@H]([C@@H](C)O)NC(=O)[C@H]([C@@H](C)O)NC(=O)[C@H](Cc2ccc(O)cc2)NC(=O)[C@H](Cc2ccc(O)cc2)NC1=O (Ac-CSHMYYTTVCWR-NH2; disulfide 1-10),> 28000
3,CC(C)C[C@@H]1NC(=O)[C@H](Cc2c[nH]c3ccccc23)NC(=O)[C@@H](NC(=O)[C@H](Cc2ccccc2)NC(=O)[C@H](CCC(=O)O)NC(=O)[C@@H](NC(=O)[C@@H](NC(=O)[C@H](CCC(=O)O)NC(=O)[C@H](C)N)[C@@H](C)O)C(C)C)CSSC[C@@H](C(N)=O)NC(=O)[C@H](CCC(=O)O)NC(=O)[C@H](Cc2ccc(O)cc2)NC(=O)[C@H](Cc2c[nH]c3ccccc23)NC(=O)[C@H](Cc2ccc(O)cc2)NC(=O)C(Cc2c[nH]cn2)NC(=O)[C@H](Cc2c[nH]c3ccccc23)NC(=O)[C@@H]2CCCN2C1=O (stereo partly specified) (H-AETVEFCWLPW[ξH]YWYEC-NH2; disulfide 7-17),1300
4,CSCC[C@@H]1NC(=O)[C@H](Cc2c[nH]cn2)NC(=O)[C@H](CO)NC(=O)[C@@H](NC(=O)[C@H](Cc2c[nH]c3ccccc23)NC(=O)[C@H](Cc2ccc(O)cc2)NC(C)=O)CSSC[C@@H](C(N)=O)NC(=O)[C@H](C(C)C)NC(=O)[C@H]([C@@H](C)O)NC(=O)[C@H]([C@@H](C)O)NC(=O)[C@H](Cc2ccc(O)cc2)NC(=O)[C@H](Cc2ccc(O)cc2)NC1=O (Ac-YWCSHMYYTTVC-NH2; disulfide 3-12),> 28000
5,CC(C)[C@H](NC(=O)[C@@H](NC(=O)[C@H](CCC(N)=O)NC(=O)[C@H](C)N)[C@@H](C)O)C(=O)N[C@@H](CCC(N)=O)C(=O)N[C@@H](Cc1ccccc1)C(=O)N[C@@H](Cc1ccc(O)cc1)C(=O)N[C@@H](Cc1c[nH]c2ccccc12)C(=O)N[C@H]1CSSC[C@@H](C(=O)N[C@@H](Cc2c[nH]c3ccccc23)C(=O)N[C@@H](CCCNC(=N)N)C(N)=O)NC(=O)[C@H](C(C)C)NC(=O)[C@H]([C@@H](C)O)NC(=O)[C@H]([C@@H](C)O)NC(=O)[C@H](Cc2ccc(O)cc2)NC(=O)[C@H](Cc2ccc(O)cc2)NC(=O)[C@H](CC[S+](C)[O-])NC(=O)[C@H](Cc2c[nH]cn2)NC(=O)[C@H](CO)NC1=O (stereo partly specified) (H-AQTVQFYWCSH[Met(O)]YYTTVCWR-NH2; disulfide 9-18),320
6,CC(=O)N[C@@H](Cc1ccc(O)cc1)C(=O)N[C@@H](Cc1c[nH]c2ccccc12)C(=O)N[C@H]1CSSC[C@@H](C(=O)N[C@@H](Cc2c[nH]c3ccccc23)C(=O)N[C@@H](CCCNC(=N)N)C(N)=O)NC(=O)[C@H](C(C)C)NC(=O)[C@H]([C@@H](C)O)NC(=O)[C@H]([C@@H](C)O)NC(=O)[C@H](Cc2ccc(O)cc2)NC(=O)[C@H](Cc2ccc(O)cc2)NC(=O)CNC(=O)[C@H](Cc2c[nH]cn2)NC(=O)[C@H](CO)NC1=O (Ac-YWCSHGYYTTVCWR-NH2; disulfide 3-12),1700
7,CC(=O)N[C@H]1CSSC[C@@H](C(N)=O)NC(=O)[C@H](C(C)C)NC(=O)[C@H](Cc2ccc(O)cc2)NC(=O)[C@H](Cc2c[nH]c3ccccc23)NC(=O)[C@H](Cc2c[nH]c3ccccc23)NC(=O)[C@H](Cc2c[nH]cn2)NC(=O)[C@H](Cc2ccc(O)cc2)NC(=O)[C@@H]2CCCN2C(=O)[C@H](CCCCN)NC(=O)[C@H](Cc2c[nH]c3ccccc23)NC1=O (Ac-CWKPYHWWYVC-NH2; disulfide 1-11),2500
8,CC(C)C[C@@H]1NC(=O)CNC(=O)[C@H](Cc2ccccc2)NC(=O)[C@H](Cc2c[nH]c3ccccc23)NC(=O)[C@H](CCC(=O)O)NC(=O)[C@H](Cc2c[nH]c3ccccc23)NC(=O)[C@H]([C@@H](C)O)NC(=O)[C@@H]2CCCN2C(=O)[C@H](Cc2c[nH]cn2)NC(=O)[C@@H](NC(=O)[C@H](Cc2ccccc2)NC(=O)[C@H](CCC(=O)O)NC(=O)[C@@H](NC(=O)[C@@H](NC(=O)[C@H](CCC(=O)O)NC(=O)[C@H](C)N)[C@@H](C)O)C(C)C)CSSC[C@@H](C(N)=O)NC1=O (H-AETVEFCHPTWEWFGLC-NH2; disulfide 7-17),2400
9,CC(=O)NCC(=O)N[C@@H](Cc1c[nH]c2ccccc12)C(=O)N[C@H]1CSSC[C@@H](C(=O)N[C@@H](CC(C)C)C(=O)N[C@@H](CCCNC(=N)N)C(N)=O)NC(=O)[C@H](Cc2c[nH]c3ccccc23)NC(=O)[C@H](C)NC(=O)[C@H](CO)NC(=O)[C@H](Cc2ccc(O)cc2)NC(=O)[C@H](Cc2ccc(O)cc2)NC(=O)CNC(=O)[C@H](CCCCN)NC(=O)[C@H](Cc2c[nH]c3ccccc23)NC1=O (Ac-GWCWKGYYSAWCLR-NH2; disulfide 3-12),1100
10,CSCC[C@@H]1NC(=O)[C@H](Cc2c[nH]cn2)NC(=O)[C@H](CO)NC(=O)[C@@H](NC(=O)[C@H](Cc2c[nH]c3ccccc23)NC(=O)[C@H](Cc2ccc(O)cc2)NC(=O)[C@H](Cc2ccccc2)NC(C)=O)CSSC[C@@H](C(=O)N[C@@H](Cc2c[nH]c3ccccc23)C(=O)N[C@@H](CCCNC(=N)N)C(N)=O)NC(=O)[C@H](C(C)C)NC(=O)[C@H]([C@@H](C)O)NC(=O)[C@H]([C@@H](C)O)NC(=O)[C@H](Cc2ccc(O)cc2)NC(=O)[C@H](Cc2ccc(O)cc2)NC1=O (Ac-FYWCSHMYYTTVCWR-NH2; disulfide 4-13),330
11,CC(C)C[C@@H]1NC(=O)[C@H](Cc2c[nH]c3ccccc23)NC(=O)[C@@H](NC(=O)[C@H](Cc2ccccc2)NC(=O)[C@H](CCC(=O)O)NC(=O)[C@@H](NC(=O)[C@@H](NC(=O)[C@H](CCC(=O)O)NC(=O)[C@H](C)N)[C@@H](C)O)C(C)C)CSSC[C@@H](C(N)=O)NC(=O)[C@H](CCC(N)=O)NC(=O)[C@H](CCC(=O)O)NC(=O)[C@H](Cc2c[nH]c3ccccc23)NC(=O)[C@H](Cc2c[nH]c3ccccc23)NC(=O)[C@H](CCC(N)=O)NC(=O)[C@H](Cc2ccccc2)NC(=O)[C@@H]2CCCN2C1=O (H-AETVEFCWLPFQWWEQC-NH2; disulfide 7-17),350
12,CSCC[C@@H]1NC(=O)[C@H](Cc2c[nH]cn2)NC(=O)[C@H](CO)NC(=O)[C@@H](NC(=O)[C@H](Cc2c[nH]c3ccccc23)NC(=O)[C@H](Cc2ccc(O)cc2)NC(=O)[C@H](Cc2ccccc2)NC(=O)[C@H](CCC(N)=O)NC(=O)[C@@H](NC(=O)[C@@H](NC(C)=O)[C@@H](C)O)C(C)C)CSSC[C@@H](C(=O)N[C@@H](Cc2c[nH]c3ccccc23)C(=O)N[C@@H](CCCNC(=N)N)C(N)=O)NC(=O)[C@H](C(C)C)NC(=O)[C@H]([C@@H](C)O)NC(=O)[C@H]([C@@H](C)O)NC(=O)[C@H](Cc2ccc(O)cc2)NC(=O)[C@H](Cc2ccc(O)cc2)NC1=O (Ac-TVQFYWCSHMYYTTVCWR-NH2; disulfide 7-16),900
13,CSCC[C@@H]1NC(=O)[C@H](Cc2c[nH]cn2)NC(=O)[C@H](CO)NC(=O)[C@@H](NC(=O)[C@H](Cc2c[nH]c3ccccc23)NC(=O)[C@H](Cc2ccc(O)cc2)NC(=O)[C@H](Cc2ccccc2)NC(=O)[C@H](CCC(=O)O)NC(=O)[C@@H](NC(=O)[C@@H](NC(=O)[C@H](CCC(=O)O)NC(=O)[C@H](C)N)[C@@H](C)O)C(C)C)CSSC[C@@H](C(=O)N[C@@H](Cc2c[nH]c3ccccc23)C(=O)N[C@@H](CCCNC(=N)N)C(N)=O)NC(=O)[C@H](C(C)C)NC(=O)[C@H]([C@@H](C)O)NC(=O)[C@H]([C@@H](C)O)NC(=O)[C@H](Cc2ccc(O)cc2)NC(=O)[C@H](Cc2ccc(O)cc2)NC1=O (H-AETVEFYWCSHMYYTTVCWR-NH2; disulfide 9-18),3900
14,CSCC[C@@H]1NC(=O)[C@H](Cc2c[nH]cn2)NC(=O)[C@H](CO)NC(=O)[C@@H](NC(=O)[C@H](Cc2c[nH]c3ccccc23)NC(=O)[C@H](Cc2ccc(O)cc2)NC(=O)[C@H](Cc2ccccc2)NC(=O)[C@H](CCC(N)=O)NC(=O)[C@@H](NC(=O)[C@@H](NC(=O)[C@H](CCC(N)=O)NC(C)=O)[C@@H](C)O)C(C)C)CSSC[C@@H](C(=O)N[C@@H](Cc2c[nH]c3ccccc23)C(=O)N[C@@H](CCCNC(=N)N)C(N)=O)NC(=O)[C@H](C(C)C)NC(=O)[C@H]([C@@H](C)O)NC(=O)[C@H]([C@@H](C)O)NC(=O)[C@H](Cc2ccc(O)cc2)NC(=O)[C@H](Cc2ccc(O)cc2)NC1=O (Ac-QTVQFYWCSHMYYTTVCWR-NH2; disulfide 8-17),800
15,CC[C@H](C)[C@@H]1NC(=O)[C@H](Cc2c[nH]cn2)NC(=O)[C@H](Cc2c[nH]cn2)NC(=O)[C@H](C)NC(=O)[C@@H](NC(=O)[C@H](Cc2ccccc2)NC(=O)[C@H](CCC(=O)O)NC(=O)[C@@H](NC(=O)[C@@H](NC(=O)[C@H](CCC(=O)O)NC(=O)[C@H](C)N)[C@@H](C)O)C(C)C)CSSC[C@@H](C(N)=O)NC(=O)[C@H](Cc2c[nH]c3ccccc23)NC(=O)[C@H](Cc2c[nH]c3ccccc23)NC(=O)[C@H](Cc2c[nH]c3ccccc23)NC(=O)[C@H](C)NC(=O)[C@H](Cc2ccc(O)cc2)NC1=O (H-AETVEFCAHHIYAWWWC-NH2; disulfide 7-17),2400
16,CCCC[C@@H]1NC(=O)[C@H](Cc2c[nH]cn2)NC(=O)[C@H](CO)NC(=O)[C@@H](NC(=O)[C@H](Cc2c[nH]c3ccccc23)NC(=O)[C@H](Cc2ccc(O)cc2)NC(C)=O)CSSC[C@@H](C(=O)N[C@@H](Cc2c[nH]c3ccccc23)C(=O)N[C@@H](CCCNC(=N)N)C(N)=O)NC(=O)[C@H](C(C)C)NC(=O)[C@H]([C@@H](C)O)NC(=O)[C@H]([C@@H](C)O)NC(=O)[C@H](Cc2ccc(O)cc2)NC(=O)[C@H](Cc2ccc(O)cc2)NC1=O (Ac-YWCSH[Nle]YYTTVCWR-NH2; disulfide 3-12),900
